Experiment: mn = molality of the nth substance listed, in mol/kg
Conditions: 101.3 kPa, Liquid; for viscosity: Capillary tube (Ostwald / Ubbelohde) method

CCCCCC(=O)[O-].[Na+] [sodium hexanoate] + O
Conditions | mass density, m1 = 0.5 [kg/m3] | mass density, m1 = 1 [kg/m3] | mass density, m1 = 1.5 [kg/m3] | mass density, m1 = 2.177 [kg/m3] | viscosity, m1 = 0.5 [mPa·s] | viscosity, m1 = 1 [mPa·s] | viscosity, m1 = 1.5 [mPa·s] | viscosity, m1 = 2.177 [mPa·s]
298.15 K | 1014.4 | 1029.41 | 1041.88 | 1054.22 | 1.212 | 1.607 | 2.102 | 3.187
308.15 K | 1010.74 | 1024.96 | 1036.7 | 1048.72 | 0.956 | 1.24 | 1.601 | 2.402

Reference: the NIST ThermoML archive (doi:10.1016/j.jct.2003.11.001)
